Experimental data as given in US20080166323A1, “Activators of Hexosamine Biosynthesis as Inhibitors of Injury Induced by Ischemia or Hermorrhagic Shock” (UAB RESEARCH FOUNDATION, priority 2004, published 2008).

Assays:
isolated rat hearts = experiment: isolated heart model of ischemia and reperfusion; conditions: 5 mM, added 10 minutes prior to ischemia and in reperfusion buffer; 10 min global ischemia, 15 min reperfusion; n=3
Protocol: To determine whether glucosamine treatment was protective in an isolated heart model of ischemia and reperfusion, isolated rat hearts (n=3) were assessed for protection against damage utilizing an ischemia/reperfusion protocol that included 10 minutes of global ischemia followed by 15 minutes of reperfusion with oxygenated buffer. In the experimental group, 5 mM glucosamine was added to the buffer 10 minutes prior to the onset of ischemia and was also included in the reperfusion buffer.

[1] = tested on: rat model of trauma-hemorrhage and resuscitation; experiment: soft tissue trauma-hemorrhage (T-H) and resuscitation, Example 1 (glucosamine before hemorrhage and during resuscitation); format: in vivo
Protocol: The following experiments were conducted using a model of soft tissue trauma-hemorrhage (T-H) as described in Ba, et al., Crit. Care Med (2000) 28(8):2837-2842; Chaudry, et al., Can J Physiol Pharmacol (1975) 53(5):859-865; Ma, et al., Am J Physiol Gastrointest Liver Physiol (2003) 284(1):G107-G115; and Harkema and Chaudry, Crit. Care Med (1992) 20(2):263-275. Male rats were fasted for 16 h and divided into three groups: (1) sham (trauma only); (2) T-H (trauma with subsequent hemorrhage and resuscitation); and (3) G-T-H (trauma with subsequent hemorrhage and resuscitation in the presence of glucosamine). All groups underwent a 5 cm ventral midline laparotomy to induce soft-tissue trauma and were cannulated in both femoral arteries and the right femoral vein. The T-H and G-T-H groups received an infusion of 3 mls over 30 minutes of Ringer's lactate (RL) containing, in the G-T-H group only, 10 mM glucosamine. These two groups were then bled to a mean arterial pressure of 40 mm Hg within 10 minutes and maintained at that pressure for 80 minutes. The T-H group was then infused with 1 ml RL over 10 minutes, while in the G-T-H group the infusate contained an iso-osmotic solution of 75 mM glucosamine (pH 7.4) in 50% RL. The two groups were then resuscitated with four times the maximum hemorrhage volume over a period of 60 minutes with RL (T-H) or RL containing 10 mM glucosamine (G-T-H). Sham-operated animals underwent the same surgical procedure but were neither bled nor resuscitated. Two hours post-resuscitation, a catheter was inserted into the left ventricle via the right carotid artery. Organ blood flows were determined using radioactive microspheres. Cardiac function and blood parameters were also assessed. The data for these experiments are shown in Tables 1 and 2 (values are mean ±standard error of the mean).

O-GlcNAc on proteins = experiment: CTD110 immunoblot of O-GlcNAc-containing proteins in isolated heart extracts; conditions: ten-minute perfusion, 5 mM, isolated hearts
Protocol: FIG. 8 is a photograph of a CTD110 immunoblot performed on extracts from isolated hearts following a 10-minute perfusion with buffer (control) or buffer containing 5 mM glucosamine (GlcNH2). The differences in the O-GlcNAc-containing protein pattern between the control and the GlcNH2 treated hearts are indicated by arrows.
In the experiments above with isolated hearts, glucosamine was protective after only a ten minute pre-incubation. While not wishing to be bound by theory, the mechanism believed to be responsible for the protection is an increase in concentration of an intracellular metabolite of the HBP, which results in an increase in protein-associated O-GlcNAc. […] Increases at ten minutes were 47%. With respect to the second point, experiments were performed in which a monoclonal antibody specific for O-GlcNAc on proteins (CTD110) (Corner, et al, Anal Biochem (2001) 293(2):169-177) was used in an immunoblotting protocol. The specificity of this antibody for O-GlcNAc-containing epitopes is verified in each experiment by the inclusion of 10 mM GlcNAc along with the CTD110 antibody on parallel samples. These samples show no staining (data not shown). CTD110 immunoblots were performed on extracts from isolated hearts following a ten-minute perfusion with buffer or buffer containing 5 mM glucosamine (FIG. 8). […]

[2] = rat, G-T-H (n = 3), 2 h after T-H, glucosamine before hemorrhage and in resuscitation, mean ± SEM
[3] = rat, G-T-H, 2 h after T-H and resuscitation, Example 1, mean ± SEM

**Q.** Which results are given for `N[C@H]1C(O)O[C@H](CO)[C@@H](O)[C@@H]1O` (stereo partly shown) [glucosamine]?
**A.** protection from ischemia/reperfusion as assessed by LVDP and EDP (isolated rat hearts): significant protection; Hepatic blood flow, change ([1]; G-T-H group, Example 1): improved; Total peripheral resistance, change ([1]; G-T-H group, Example 1): decreased; +dp/dt relative to the T-H group ([1]; G-T-H vs T-H group, Example 1): markedly improved; Cardiac output improvement over the T-H group ([1]; G-T-H vs T-H group, Example 1): more than two-fold; oxygen consumption relative to the T-H group ([1]; G-T-H vs T-H group, Example 1): more than doubled; oxygen delivery relative to the T-H group ([1]; G-T-H vs T-H group, Example 1): more than doubled; −dp/dt relative to the T-H group ([1]; G-T-H vs T-H group, Example 1): markedly improved; Cardiac output improvement over the sham group ([1]; G-T-H vs sham group, Example 1): more than 50%; +dp/dt [1, 2]: 14,400 ± 900 mm Hg/sec; Cardiac Output [1, 2]: 40.5 ± 0.4 ml/min 100 g body wt; Heart Rate [1, 2]: 371 ± 15 beat/minute; Mean Arterial Pressure [1, 2]: 104 ± 3 mm Hg; Oxygen Consumption [1, 2]: 1.32 ± 0.15 ml/min 100 g body wt; Oxygen Delivery [1, 2]: 3.3 ± 0.1 ml/min 100 g body wt; Oxygen Extraction [1, 2]: 42.0 ± 5.4%; Stroke volume [1, 2]: 109.7 ± 5.7 μl/beat/100 g body wt; Total Peripheral Resistance [1, 2]: 2.58 ± 0.10 mm Hg/ml/min/100 g body wt; −dp/dt [1, 2]: 8,700 ± 600 mm Hg/sec; Regional Blood Flow: Brain [1, 3]: 103 ± 11 ml/min/100 g tissue; Regional Blood Flow: Cardiac [1, 3]: 1,320 ± 170 ml/min/100 g tissue; Regional Blood Flow: Cecum [1, 3]: 118 ± 29 ml/min/100 g tissue; Regional Blood Flow: Gastric [1, 3]: 78.3 ± 5.1 ml/min/100 g tissue; Regional Blood Flow: Hepatic Artery [1, 3]: 18.5 ± 6.0 ml/min/100 g tissue; Regional Blood Flow: Large Intestine [1, 3]: 101 ± 18 ml/min/100 g tissue; Regional Blood Flow: Lung [1, 3]: 74.2 ± 18.1 ml/min/100 g tissue; Regional Blood Flow: Mesenteric [1, 3]: 29.2 ± 5.0 ml/min/100 g tissue; Regional Blood Flow: Muscle [1, 3]: 6.45 ± 1.69 ml/min/100 g tissue; Regional Blood Flow: Pancreatic [1, 3]: 56 ± 4 ml/min/100 g tissue; Regional Blood Flow: Portal Vein [1, 3]: 187 ± 14 ml/min/100 g tissue; Regional Blood Flow: Renal [1, 3]: 374 ± 13 ml/min/100 g tissue; Regional Blood Flow: Skin [1, 3]: 53.9 ± 5.7 ml/min/100 g tissue; Regional Blood Flow: Small Intestine [1, 3]: 240 ± 24 ml/min/100 g tissue; Regional Blood Flow: Splenic [1, 3]: 46 ± 20 ml/min/100 g tissue; Regional Blood Flow: Thymus [1, 3]: 47.8 ± 10.5 ml/min/100 g tissue; Regional Blood Flow: Total Hepatic [1, 3]: 202 ± 20 ml/min/100 g tissue; O-GlcNAc-containing protein pattern vs buffer (O-GlcNAc on proteins): Clear differences
